Reference: patent US20260224571A1, “AZACYCLOALKANE COMPOUND AND PHARMACEUTICAL COMPOSITION, AND USE THEREOF” (Prime Gene Therapeutics Co., Ltd., priority 2023, published 2026)

Columns and labels:
ROCK1 = ROCK1 (Homo sapiens, UniProt Q13464); assay: ROCK1 kinase enzymatic activity (HTRF, STK2 substrate); type: biochemical; conditions: ROCK1 kinase reacted at room temperature for 20 minutes
Source text: (§1) The kinase activity data was expressed by comparing the kinase activity of the test compound and that of the blank group (containing only DMSO), and the IC50 value was obtained by curve fitting using Prism software (GraphPad7.0).

ROCK2 = ROCK2 (Homo sapiens, UniProt O75116); assay: ROCK2 kinase enzymatic activity (HTRF, STK2 substrate); type: biochemical; conditions: ROCK2 kinase reacted at room temperature for 30 minutes
Source text: as §1

ROCK2, sequence (O75116 whole entry): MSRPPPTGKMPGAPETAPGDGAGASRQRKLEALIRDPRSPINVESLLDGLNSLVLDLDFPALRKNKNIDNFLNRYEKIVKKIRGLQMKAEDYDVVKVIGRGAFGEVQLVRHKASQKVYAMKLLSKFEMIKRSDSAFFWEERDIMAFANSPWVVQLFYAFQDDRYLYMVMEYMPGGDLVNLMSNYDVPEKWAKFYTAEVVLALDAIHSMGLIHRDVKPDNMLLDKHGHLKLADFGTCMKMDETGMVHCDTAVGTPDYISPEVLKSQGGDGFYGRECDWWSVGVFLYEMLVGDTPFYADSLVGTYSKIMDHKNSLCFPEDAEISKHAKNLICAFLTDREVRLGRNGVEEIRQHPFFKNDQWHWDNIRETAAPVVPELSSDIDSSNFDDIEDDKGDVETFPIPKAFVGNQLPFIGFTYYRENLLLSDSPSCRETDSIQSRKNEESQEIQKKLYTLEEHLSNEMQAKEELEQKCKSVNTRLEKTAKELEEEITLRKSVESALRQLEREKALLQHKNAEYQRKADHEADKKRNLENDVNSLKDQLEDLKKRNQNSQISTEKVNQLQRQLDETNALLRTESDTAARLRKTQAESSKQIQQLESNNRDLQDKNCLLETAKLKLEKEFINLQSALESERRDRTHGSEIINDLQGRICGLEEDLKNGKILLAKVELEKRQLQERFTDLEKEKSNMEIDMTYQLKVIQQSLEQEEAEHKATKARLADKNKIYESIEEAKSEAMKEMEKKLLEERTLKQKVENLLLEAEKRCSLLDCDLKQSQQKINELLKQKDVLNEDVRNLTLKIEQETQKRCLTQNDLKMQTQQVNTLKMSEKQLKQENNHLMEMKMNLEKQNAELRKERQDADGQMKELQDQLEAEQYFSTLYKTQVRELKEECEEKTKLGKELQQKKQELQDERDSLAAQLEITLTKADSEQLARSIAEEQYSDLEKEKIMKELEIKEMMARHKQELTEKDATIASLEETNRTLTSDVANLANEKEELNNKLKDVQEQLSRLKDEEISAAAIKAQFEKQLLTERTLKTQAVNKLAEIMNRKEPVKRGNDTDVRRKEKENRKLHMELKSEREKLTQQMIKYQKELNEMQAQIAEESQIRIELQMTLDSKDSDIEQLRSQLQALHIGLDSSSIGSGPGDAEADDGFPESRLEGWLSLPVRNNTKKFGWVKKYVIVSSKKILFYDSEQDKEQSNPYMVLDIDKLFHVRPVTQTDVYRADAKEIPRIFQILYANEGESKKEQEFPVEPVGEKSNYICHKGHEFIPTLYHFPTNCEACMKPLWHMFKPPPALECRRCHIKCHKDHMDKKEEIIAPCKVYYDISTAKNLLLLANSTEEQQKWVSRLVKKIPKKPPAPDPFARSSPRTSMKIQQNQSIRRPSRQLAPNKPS
ROCK1, sequence (Q13464 whole entry): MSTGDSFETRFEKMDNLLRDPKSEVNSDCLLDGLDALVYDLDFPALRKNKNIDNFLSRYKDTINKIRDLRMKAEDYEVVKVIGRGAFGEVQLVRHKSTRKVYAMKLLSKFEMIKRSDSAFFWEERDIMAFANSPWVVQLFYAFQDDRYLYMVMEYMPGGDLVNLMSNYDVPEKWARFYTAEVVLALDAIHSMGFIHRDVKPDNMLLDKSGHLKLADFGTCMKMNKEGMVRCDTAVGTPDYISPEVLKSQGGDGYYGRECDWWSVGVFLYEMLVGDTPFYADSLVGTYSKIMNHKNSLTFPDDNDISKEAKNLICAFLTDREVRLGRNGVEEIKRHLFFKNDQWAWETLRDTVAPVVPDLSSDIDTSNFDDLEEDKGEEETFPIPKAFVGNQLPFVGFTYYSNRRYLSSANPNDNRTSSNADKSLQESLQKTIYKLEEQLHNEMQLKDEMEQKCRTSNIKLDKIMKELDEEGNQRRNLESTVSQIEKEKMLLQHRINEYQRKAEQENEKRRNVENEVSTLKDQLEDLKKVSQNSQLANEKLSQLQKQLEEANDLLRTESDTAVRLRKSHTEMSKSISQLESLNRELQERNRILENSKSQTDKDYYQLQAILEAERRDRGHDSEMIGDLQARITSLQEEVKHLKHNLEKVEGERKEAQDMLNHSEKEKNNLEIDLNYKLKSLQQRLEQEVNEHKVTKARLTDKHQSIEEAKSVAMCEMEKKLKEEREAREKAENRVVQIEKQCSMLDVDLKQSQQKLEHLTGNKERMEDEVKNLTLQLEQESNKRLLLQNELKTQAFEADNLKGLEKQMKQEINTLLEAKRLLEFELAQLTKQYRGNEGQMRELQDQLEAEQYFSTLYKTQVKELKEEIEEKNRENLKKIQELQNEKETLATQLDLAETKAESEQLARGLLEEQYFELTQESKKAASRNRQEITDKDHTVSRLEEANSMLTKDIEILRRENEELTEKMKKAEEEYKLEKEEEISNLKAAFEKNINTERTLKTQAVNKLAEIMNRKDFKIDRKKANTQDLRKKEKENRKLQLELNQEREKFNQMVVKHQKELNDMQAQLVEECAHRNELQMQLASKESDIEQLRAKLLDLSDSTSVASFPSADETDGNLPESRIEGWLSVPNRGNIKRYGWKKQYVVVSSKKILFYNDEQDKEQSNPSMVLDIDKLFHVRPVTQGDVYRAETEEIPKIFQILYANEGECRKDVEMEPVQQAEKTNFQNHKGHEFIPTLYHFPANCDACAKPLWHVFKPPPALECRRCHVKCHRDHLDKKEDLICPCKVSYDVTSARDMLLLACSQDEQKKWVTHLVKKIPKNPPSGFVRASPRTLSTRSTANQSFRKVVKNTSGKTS

In the case of N#CCC1(n2cc(-c3ncnc4[nH]ccc34)c(N)n2)CN(S(=O)(=O)CCC(F)(F)F)C1 [Example 4, 2-(3-(3-amino-4-(7H-pyrrolo[2,3-d]pyrimidin-4-yl)-1H-pyrazol-1-yl)-1-((3,3,3-trifluoropropyl)sulfonyl)azetidine-3-yl)acetonitrile], the IC50 (ROCK1) is reported as less than 5 nM and the IC50 (ROCK2) is reported as less than 5 nM.
Work on N#CCC1(n2cc(-c3ncnc4[nH]ccc34)c(N)n2)CN(S(=O)(=O)CC(=O)NN)C1 [Example 9] yielded an IC50 (ROCK1) of less than 10 nM and an IC50 (ROCK2) of less than 10 nM.
For CNC(=O)N1CC(CC#N)(n2cc(-c3ncnc4[nH]ccc34)c(N)n2)C1 [Example 10, 3-(3-amino-4-{7H-pyrrolo[2,3-d]pyrimidin-4-yl}pyrazol-1-yl)-3-(cyanomethyl)-N-methylazetidine-1-formamide], the IC50 (ROCK1) was less than 5 nM and the IC50 (ROCK2) was less than 5 nM.
Compound N#CCC1(n2cc(-c3ncnc4[nH]ccc34)c(N)n2)CN(C(=O)NCC(F)(F)F)C1 [Example 11, 3-(3-amino-4-(7H-pyrrolo[2,3-d]pyrimidin-4-yl)-1H-pyrazol-1-yl)-3-(cyanomethyl)-N-(2,2,2-trifluoroethyl)azetidine-1-formamide] has an IC50 (ROCK1) of less than 10 nM and an IC50 (ROCK2) of less than 10 nM.
With N#CCC1(n2cc(-c3ncnc4[nH]ccc34)c(N)n2)CN(C(=O)NC2CC2)C1 [Example 12, 3-(3-amino-4-(7H-pyrrolo[2,3-d]pyrimidin-4-yl)-1H-pyrazol-1-yl)-3-(cyanomethyl)-N-cyclopropylazetidine-1-formamide] the IC50 (ROCK1) was less than 50 nM and the IC50 (ROCK2) was less than 50 nM.
Compound N#CCC1(n2cc(-c3ncnc4[nH]ccc34)c(N)n2)CN(C(=O)N2CC(F)(F)C2)C1 [Example 13, 2-(3-(3-amino-4-(7H-pyrrolo[2,3-d]pyrimidin-4-yl)-1H-pyrazol-1-yl)-1-(3,3-difluoroazetidine-1-carbonyl)azetidin-3-yl)acetonitrile] has an IC50 (ROCK1) of less than 50 nM and an IC50 (ROCK2) of less than 50 nM.
With CCNC(=O)N1CC(CC#N)(n2cc(-c3ncnc4[nH]ccc34)c(N)n2)C1 [Example 14, 3-(3-amino-4-(7H-pyrrolo[2,3-d]pyrimidin-4-yl)-1H-pyrazol-1-yl)-3-(cyanomethyl)-N-ethylazetidine-1-formamide] the IC50 (ROCK1) was less than 5 nM and the IC50 (ROCK2) was less than 5 nM.
With CC(C)NC(=O)N1CC(CC#N)(n2cc(-c3ncnc4[nH]ccc34)c(N)n2)C1 [Example 15, 3-(3-amino-4-(7H-pyrrolo[2,3-d]pyrimidin-4-yl)-1H-pyrazol-1-yl)-3-(cyanomethyl)-N-isopropylaza-1-formamide] the IC50 (ROCK1) was less than 50 nM and the IC50 (ROCK2) was less than 50 nM.
C[C@H](NC(=O)N1CC(CC#N)(n2cc(-c3ncnc4[nH]ccc34)c(N)n2)C1)C(F)(F)F [Example 16, (S)-3-(3-amino-4-(7H-pyrrolo[2,3-d]pyrimidin-4-yl)-1H-pyrazol-1-yl)-3-(cyanomethyl)-N-(1,1,1-trifluoropropan-2-yl)azetidine-1-formamide] was tested, and the IC50 (ROCK1) was less than 50 nM and the IC50 (ROCK2) was less than 50 nM.
Compound N#CCC1(n2cc(-c3ncnc4[nH]ccc34)c(N)n2)CN(C(=O)NCCO)C1 [Example 17, 3-(3-amino-4-(7H-pyrrolo[2,3-d]pyrimidin-4-yl)-1H-pyrazol-1-yl)-3-(cyanomethyl)-N-(2-hydroxyethyl)azetidine-1-formamide] has an IC50 (ROCK1) of less than 50 nM and an IC50 (ROCK2) of less than 50 nM.
With N#CCC1(n2cc(-c3ncnc4[nH]ccc34)c(N)n2)CN(C(=O)N[C@H]2CC2(F)F)C1 [Example 20, (S)-3-(3-amino-4-(7H-pyrrolo[2,3-d]pyrimidin-4-yl)-1H-pyrazol-1-yl)-3-(cyanomethyl)-N-(2,2-difluorocyclopropyl)azetidine-1-formamide] the IC50 (ROCK1) was less than 10 nM and the IC50 (ROCK2) was less than 10 nM.
For N#CCC(=O)N1CC(CC#N)(n2cc(-c3ncnc4[nH]ccc34)c(N)n2)C1 [Example 21, 3-(3-(3-amino-4-(7H-pyrrolo[2,3-d]pyrimidin-4-yl)-1H-pyrazol-1-yl)-3-(cyanomethyl)azetidine-1-yl]-3-oxopropionitrile], the IC50 (ROCK1) was less than 5 nM and the IC50 (ROCK2) was less than 10 nM.
N#CCC1(n2cc(-c3ncnc4[nH]ccc34)c(N)n2)CN(C(=O)C2CC2)C1 [Example 22, 2-(3-(3-amino-4-(7H-pyrrolo[2,3-d]pyrimidin-4-yl)-1H-pyrazol-1-yl)-1-(cyclopropanecarbonyl)azetidine-3-yl)acetonitrile] showed an IC50 (ROCK1) of less than 50 nM and an IC50 (ROCK2) of less than 50 nM.
Work on C[C@H](N)C(=O)N1CC(CC#N)(n2cc(-c3ncnc4[nH]ccc34)c(N)n2)C1 [Example 23, 2-(1-alaninyl-3-(3-amino-4-(7H-pyrrolo[2,3-d]pyrimidin-4-yl)-1H-pyrazol-1-yl)azetidine-3-yl)acetonitrile] yielded an IC50 (ROCK1) of less than 50 nM and an IC50 (ROCK2) of less than 50 nM.
Work on N#CCC1(n2cc(-c3ncnc4[nH]ccc34)c(N)n2)CN(C(=O)C2(F)CC2)C1 [Example 24, 2-(3-(3-amino-4-(7H-pyrrolo[2,3-d]pyrimidin-4-yl)-1H-pyrazol-1-yl)-1-(1-fluorocyclopropane-1-carbonyl)azetidine-3-yl)acetonitrile] yielded an IC50 (ROCK1) of less than 50 nM and an IC50 (ROCK2) of less than 50 nM.
N#CCC1(n2cc(-c3ncnc4[nH]ccc34)c(N)n2)CN(C(=O)C2(C(F)(F)F)CC2)C1 [Example 25, 2-(3-(3-amino-4-(7H-pyrrolo[2,3-d]pyrimidin-4-yl)-1H-pyrazol-1-yl)-1-(1-(trifluoromethyl)cyclopropane-1-carbonyl)azetidine-3-yl)acetonitrile] showed an IC50 (ROCK1) of less than 10 nM and an IC50 (ROCK2) of less than 10 nM.
N#CCC1(n2cc(-c3ncnc4[nH]ccc34)c(N)n2)CN(C(=O)C2(C#N)CC2)C1 [Example 26, 1-(3-(3-amino-4-(7H-pyrrolo[2,3-d]pyrimidin-4-yl)-1H-pyrazol-1-yl)-3-(cyanomethyl)azetidine-1-carbonyl)cyclopropane-1-nitrile] was tested, and the IC50 (ROCK1) was less than 10 nM and the IC50 (ROCK2) was less than 10 nM.
N#CCC1(n2cc(-c3ncnc4[nH]ccc34)c(N)n2)CN(C(=O)C(F)(F)C(F)(F)F)C1 [Example 27] showed an IC50 (ROCK1) of less than 10 nM and an IC50 (ROCK2) of less than 10 nM.
With CN(C)CC(=O)N1CC(CC#N)(n2cc(-c3ncnc4[nH]ccc34)c(N)n2)C1 [Example 28, 2-(3-(3-amino-4-(7H-pyrrolo[2,3-d]pyrimidin-4-yl)-1H-pyrazol-1-yl)-1-(dimethylglycine)azetidine-3-yl)acetonitrile] the IC50 (ROCK1) was less than 50 nM and the IC50 (ROCK2) was less than 50 nM.
For N#CCN1CC(CC#N)(n2cc(-c3ncnc4[nH]ccc34)c(N)n2)C1 [Example 29, 2,2′-(3-(3-amino-4-(7H-pyrrolo[2,3-d]pyrimidin-4-yl)-1H-pyrazol-1-yl)azetidine-1,3-diyl)diacetonitrile], the IC50 (ROCK1) was less than 10 nM and the IC50 (ROCK2) was less than 10 nM.
In the case of N#CCC1(n2cc(-c3ncnc4[nH]ccc34)c(N)n2)CN(C(=O)CC(F)(F)F)C1 [Example 30], the IC50 (ROCK1) is reported as less than 5 nM and the IC50 (ROCK2) is reported as less than 10 nM.
N#CCC1(n2cc(-c3ncnc4[nH]ccc34)c(N)n2)CN(C(=O)C2CC(F)(F)C2)C1 [Example 32, 2-(3-(3-amino-4-(7H-pyrrolo[2,3-d]pyrimidin-4-yl)-1H-pyrazol-1-yl)-1-(3,3-difluorocyclobutane-1-carbonyl)azetidine-3-yl)acetonitrile] was tested, and the IC50 (ROCK1) was less than 5 nM and the IC50 (ROCK2) was less than 10 nM.
Work on C[C@H](O)C(=O)N1CC(CC#N)(n2cc(-c3ncnc4[nH]ccc34)c(N)n2)C1 [Example 33, (S)-2-(3-(3-amino-4-(7H-pyrrolo[2,3-d]pyrimidin-4-yl)-1H-pyrazol-1-yl)-1-(2-hydroxypropionyl)azetidine-3-yl)acetonitrile] yielded an IC50 (ROCK1) of less than 10 nM and an IC50 (ROCK2) of less than 10 nM.
In the case of N#CCC1(n2cc(-c3ncnc4[nH]ccc34)c(N)n2)CN(C(=O)[C@@H]2C[C@H]2C#N)C1 [Example 35, (1R, 2R)-2-(3-(3-amino-4-(7H-pyrrolo[2,3-d]pyrimidin-4-yl)-1H-pyrazol-1-yl)-3-(cyanomethyl)azetidine-1-carbonyl)cyclopropane-1-nitrile], the IC50 (ROCK1) is reported as less than 10 nM and the IC50 (ROCK2) is reported as less than 10 nM.
For CS(=N)(=O)N1CC(CC#N)(n2cc(-c3ncnc4[nH]ccc34)c(N)n2)C1 (centres unmarked) [Example 36, 2-(3-(3-amino-4-(7H-pyrrolo[2,3-d]pyrimidin-4-yl)-1H-pyrazol-1-yl)-1-(S-methysulfonylimino)azetidine-3-yl)acetonitrile], the IC50 (ROCK1) was less than 5 nM and the IC50 (ROCK2) was less than 5 nM.
In the case of CC(C)S(=N)(=O)N1CC(CC#N)(n2cc(-c3ncnc4[nH]ccc34)c(N)n2)C1 (centres unmarked) [Example 39, 2-(3-(3-amino-4-(7H-pyrrolo[2,3-d]pyrimidin-4-yl)-1H-pyrazol-1-yl)-1-(prop-2-yl-sulfonylimino)azetidine-3-yl)acetonitrile], the IC50 (ROCK1) is reported as less than 50 nM and the IC50 (ROCK2) is reported as less than 50 nM.
With N#CCC1(n2cc(-c3ncnc4[nH]ccc34)c(N)n2)CN(S(=O)(=O)NS(N)(=O)=O)C1 [Example 42, 3-(3-amino-4-(7H-pyrrolo[2,3-d]pyrimidin-4-yl)-1H-pyrazol-1-yl)-3-(cyanomethyl)-N-sulfamoylazetidine-1-sulfonamide] the IC50 (ROCK1) was less than 100 nM and the IC50 (ROCK2) was less than 50 nM.
Compound N#CCC1(n2cc(-c3ncnc4[nH]ccc34)c(N)n2)CN(S(=O)(=O)N(CC(F)(F)F)CC(F)(F)F)C1 [Example 43, 3-(3-amino-4-(7H-pyrrolo[2,3-d]pyrimidin-4-yl)-1H-pyrazol-1-yl)-3-(cyanomethyl)-N,N-bis(2,2,2-trifluoroethyl)azetidine-1-sulfonamide] has an IC50 (ROCK1) of less than 10 nM and an IC50 (ROCK2) of less than 10 nM.
Work on N#CCC1(n2cc(-c3ncnc4[nH]ccc34)c(N)n2)CN(S(=O)(=O)NCCO)C1 [Example 44, 3-(3-amino-4-(7H-pyrrolo[2,3-d]pyrimidin-4-yl)-1H-pyrazol-1-yl)-3-(cyanomethyl)-N-(2-hydroxyethyl)azetidine-1-sulfonamide] yielded an IC50 (ROCK1) of less than 50 nM and an IC50 (ROCK2) of less than 50 nM.
N#CCC1(n2cc(-c3ncnc4[nH]ccc34)c(N)n2)CN(S(=O)(=O)NCCCl)C1 [Example 46, 3-(3-amino-4-(7H-pyrrolo[2,3-d]pyrimidin-4-yl)-1H-pyrazol-1-yl)-N-(2-chloroethyl)-3-(cyanomethyl)azetidine-1-sulfonamide] showed an IC50 (ROCK1) of less than 10 nM and an IC50 (ROCK2) of less than 5 nM.
N#CCC1(n2cc(-c3ncnc4[nH]ccc34)c(N)n2)CN(S(=O)(=O)N2CC2)C1 [Example 47, 2-(3-(3-amino-4-(7H-pyrrolo[2,3-d]pyrimidin-4-yl)-1H-pyrazol-1-yl)-1-(aziridin-1-ylsulfonyl)azetidine-3-yl)acetonitrile] gave an IC50 (ROCK1) of less than 5 nM and an IC50 (ROCK2) of less than 5 nM.
